Laboratory results from patent publication US20250288645A1, “USE OF GsMTx4 AND GsMTx4 CONJUGATES TO IMPROVE RECOVERY FROM JOINT INJURY” (priority 2023, published 2025).
No end group written: not given here.

How the values were obtained:
[1] = system: Piezo1; test: Bilateral ACL-injury mouse model: Piezo1 labeling (immunofluorescence); type: in vivo; settings: ACL-I mice, 3 weeks post-ACL-I, versus saline-treated ACL-I mice
From the text: Some of the studies reported below involved a murine model of animals which were subjected to trauma by injuring an ACL (as an exemplar of injury to any of the four knee ligaments). Without wishing to be bound by theory, it is believed that injury to the ACL changes the mechanical loading on the joint, promoting imbalanced metabolism in articular cartilage, and promoting the development of post-traumatic OA, or “PTOA.” Animals were divided into four cohorts: the first group, the controls, were not subjected to trauma, the second group underwent bilateral ACL injury, but no further treatment, the third group underwent bilateral ACL injury, and was then administered saline solution at days 3, 10 and 17 post-injury, and the fourth group underwent bilateral ACL injury, and was then administered GsMTx4 peptide at days 3, 10 and 17 post-injury. The animals were evaluated by gait analysis, a cell vulnerability assay, and a histological evaluation/immunofluorescence assay. In one aspect, the assays compared the expression of Piezo1 and Piezo2 in chondrocytes from injured joints, from uninjured controls, and from injured joints injured and then treated with GsMTx4 and from joints that were injured and then treated only with saline solution. The study also looked at calcitonin gene-related peptide (“CGRP”)-containing (“CGRP^+”) nerve endings. […]

[2] = system: C57Bl/6 male mice; test: Massive rotator cuff tear (RCT) mouse model: humeral head cartilage histology; type: in vivo
Method: A massive rotator cuff tear (RCT) model was performed by surgical ligation of the supraspinatus and infraspinatus tendons of the right shoulder of 14-week-old C57Bl/6 male and female mice through a deltoid splitting approach. Mice were anesthetized with 2% isoflurane gas mixed with oxygen. A single dose of buprenorphine SR (0.5 mg/kg) was injected subcutaneously at the nape. The right shoulder was prepped using a chemical hair removal agent, followed by betadine solution for 2 minutes and a rinse with 70% ethanol. The remaining steps were performed under sterile technique. A #11 scalpel blade was used to sharply incise the skin and subcutaneous tissues in a longitudinal incision over the palpable border of the lateral shoulder. The deltoid fascia and muscle were sharply incised in line with the skin incision with care not to dissect distally along the humerus to protect the axillary nerve. A pair of forceps were then used to grasp the proximal humerus and pull laterally to place the glenohumeral joint on gentle tension. A 25G needle was passed under the supraspinatus and infraspinatus tendons. […] Animals were monitored daily for 3 days post-operatively, and no adverse events were noted. […]
Humeri were harvested and chondrocyte mechano-vulnerability was quantified before and after 2 mJ impact according to methods above. […]

With “GsMTx4 (GCLEFWWKCNPNDDKCCRPKLKCSKLFKLCNFSF-NH2; ends and bridges not checked; listed as Grammostola spatulata)” as the substance, how does the “Piezo1-labeling in chondrocytes and nerves in subchondral bones” value [1] read?
The value was “reduced Piezo1-labeling in chondrocytes and nerves in subchondral bones”.

And the “average humeral head cartilage thickness” value ([2]; RC ligation, subcutaneous twice weekly, 14 weeks post-operatively, GsMTx4 versus saline or contralateral control joint)?
Its value is “no difference in average humeral head cartilage thickness”.

What about the “cartilage degeneration of shoulder” value ([2]; RCT, treated post-injury, versus animals not treated post-injury with GsMTx4) of the same substance?
The value was “reduced cartilage degeneration”.
